# Patent US10213427B2 (Incyte Corporation, priority 2010, dated 2019)
# Target: FGFR3 enzyme (Millipore) (Homo sapiens (Human), UniProt P22607)
# Experiment: FGFR3 Enzymatic Assay
# Type: biochemical
# Settings: FRET peptide phosphorylation, 140 μM ATP
# Description: The inhibitor potency of compounds of the invention was measured in an enzyme assay that measures peptide phosphorylation using FRET measurements to detect product formation. Inhibitors were serially diluted in DMSO and a volume of 0.5 μL was transferred to the wells of a 384-well plate. A 10 μL volume of FGFR3 enzyme (Millipore) diluted in assay buffer (50 mM HEPES, 10 mM MgCl2, 1 mM EGTA, 0.01% Tween-20, 5 mM DTT, pH 7.5) was added to the plate and pre-incubated for 5-10 minutes. Appropriate controls (enzyme blank and enzyme with no inhibitor) were included on the plate. […] The plate was incubated at 25° C. for 1 hr. […] The plate was allowed to equilibrate for ˜1 hr before scanning the wells on a PheraStar plate reader.
# GraphPad prism3 was used to analyze the data. The IC50 values were derived by fitting the data to the equation for a sigmoidal dose-response with a variable slope. Y=Bottom+(Top−Bottom)/(1+10^((Log IC50−X)*HillSlope)) where X is the logarithm of concentration and Y is the response.
# Sequence of FGFR3 enzyme (Millipore) (P22607 23-806): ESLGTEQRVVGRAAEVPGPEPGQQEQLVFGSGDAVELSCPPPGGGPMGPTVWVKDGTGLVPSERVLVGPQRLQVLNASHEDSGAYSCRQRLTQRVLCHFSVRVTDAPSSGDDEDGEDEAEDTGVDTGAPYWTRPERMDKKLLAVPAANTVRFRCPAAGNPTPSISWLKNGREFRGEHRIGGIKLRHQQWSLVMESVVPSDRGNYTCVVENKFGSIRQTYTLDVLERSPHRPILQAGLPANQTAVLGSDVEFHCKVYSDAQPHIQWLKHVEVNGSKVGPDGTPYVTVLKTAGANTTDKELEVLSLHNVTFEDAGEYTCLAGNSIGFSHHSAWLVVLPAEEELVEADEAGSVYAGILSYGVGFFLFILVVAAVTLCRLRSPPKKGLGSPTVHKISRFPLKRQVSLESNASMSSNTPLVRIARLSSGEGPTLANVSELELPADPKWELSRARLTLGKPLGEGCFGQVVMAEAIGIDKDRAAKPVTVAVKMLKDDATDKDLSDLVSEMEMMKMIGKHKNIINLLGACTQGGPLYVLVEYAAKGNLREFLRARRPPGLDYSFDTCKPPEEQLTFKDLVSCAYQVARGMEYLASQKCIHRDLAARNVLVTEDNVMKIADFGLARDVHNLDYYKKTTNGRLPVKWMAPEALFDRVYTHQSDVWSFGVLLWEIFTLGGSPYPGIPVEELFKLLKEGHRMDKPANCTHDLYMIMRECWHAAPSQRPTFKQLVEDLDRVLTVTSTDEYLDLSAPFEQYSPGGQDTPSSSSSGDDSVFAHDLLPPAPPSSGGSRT
row,Structure (SMILES),IC50 [nM]
1,"CC(C(=O)N1CCCC1)c1ccc(-c2ccc3c(c2)ncn3-c2cccc(NC(=O)NCC(F)(F)F)c2)cc1 (centres unmarked) [Example 17, N-(3-{5-[4-(1-Methyl-2-oxo-2-pyrrolidin-1-ylethyl)phenyl]-1H-benzimidazol-1-yl}phenyl)-N′-(2,2,2-trifluoroethyl)urea]",< 10
2,"N#CCC1(n2cc(-c3cnn4c(-c5cccc(NC(=O)NCC(F)(F)F)c5)cnc4c3)cn2)CN(CC2CC2)C1 [Example 83, N-[3-(7-{1-[3-(Cyanomethyl)-1-(cyclopropylmethyl)azetidin-3-yl]-1H-pyrazol-4-yl}imidazo[1,2-b]pyridazin-3-yl)phenyl]-N′-(2,2,2-trifluoroethyl)urea]",10 to 25
3,O=C(NCC(F)(F)F)Nc1cccc(-n2cnc3cc(-c4cnn(C5CCN(C(=O)Nc6cccnc6)CC5)c4)ccc32)c1 [Example 25],< 10
4,"CC(C(=O)NCC1CCCO1)c1ccc(-c2ccc3c(c2)ncn3-c2cccc(NC(=O)NCC(F)(F)F)c2)cc1 (centres unmarked) [Example 18, N-(Tetrahydrofuran-2-ylmethyl)-2-(4-{1-[3-({[(2,2,2-trifluoroethyl)amino]carbonyl}amino)phenyl]-1H-benzimidazol-5-yl}phenyl)propanamide]",< 10
5,"Cn1ccc(S(=O)(=O)N2CC(CC#N)(n3cc(-c4cnn5c(-c6cccc(NC(=O)NCC(F)(F)F)c6)cnc5c4)cn3)C2)n1 [Example 73, N-{3-[7-(1-{3-(Cyanomethyl)-1-[(1-methyl-1H-pyrazol-3-yl)sulfonyl]azetidin-3-yl}-1H-pyrazol-4-yl)imidazo[1,2-b]pyridazin-3-yl]phenyl}-N′-(2,2,2-trifluoroethyl)urea]",< 10
6,"CC(C(=O)NCc1nccn1C)c1ccc(-c2ccc3c(c2)ncn3-c2cccc(NC(=O)NCC(F)(F)F)c2)cc1 (centres unmarked) [Example 20, N-[(1-Methyl-1H-imidazol-2-yl)methyl]-2-(4-{1-[3-({[(2,2,2-trifluoroethyl)amino]carbonyl}amino)phenyl]-1H-benzimidazol-5-yl}phenyl)propanamide]",< 10
7,"O=C(NCC(F)(F)F)Nc1cccc(-c2cnc3cc(-c4cnn(C5CCN(C(=O)CC6CC6)CC5)c4)cnn23)c1 [Example 41, N-[3-(7-{1-[1-(Cyclopropylacetyl)piperidin-4-yl]-1H-pyrazol-4-yl}imidazo[1,2-b]pyridazin-3-yl)phenyl]-N′-(2,2,2-trifluoroethyl)urea]",< 10
8,"CNC(=O)C(C)n1cc(-c2cnn3c(-c4cccc(NC(=O)NCC(F)(F)F)c4)cnc3c2)cn1 (centres unmarked) [Example 55, N-Methyl-2-(4-{3-[3-({[(2,2,2-trifluoroethyl)amino]carbonyl}amino)phenyl]imidazo[1,2-b]pyridazin-7-yl}-1H-pyrazol-1-yl)propanamide]",< 10
9,"CC(C(=O)N(C)C)c1ccc(-c2ccc3c(c2)ncn3-c2cccc(NC(=O)NCC(F)(F)F)c2)cc1 (centres unmarked) [Example 15, N,N-Dimethyl-2-(4-{1-[3-({[(2,2,2-trifluoroethyl)amino]carbonyl}amino)phenyl]-1H-benzimidazol-5-yl}phenyl)propanamide]",< 10
10,"CC(C(=O)N1CCC[C@H]1CO)c1ccc(-c2cnn3c(-c4cccc(NC(=O)NCC(F)(F)F)c4)cnc3c2)cc1 (stereo partly drawn) [Example 106, N-{3-[7-(4-{2-[(2S)-2-(Hydroxymethyl)pyrrolidin-1-yl]-1-methyl-2-oxoethyl}phenyl)imidazo[1,2-b]pyridazin-3-yl]phenyl}-N′-(2,2,2-trifluoroethyl)urea]",< 10
11,"O=C(NCC(F)(F)F)Nc1cccc(-c2cnc3cc(-c4cnn(C5CCN(C(=O)NCc6ccccc6)CC5)c4)cnn23)c1 [Example 39, N-Benzyl-4-(4-{3-[3-({[(2,2,2-trifluoroethyl)amino]carbonyl}amino)phenyl]imidazo[1,2-b]pyridazin-7-yl}-1H-pyrazol-1-yl)piperidine-1-carboxamide]",< 10
